Assay results from US12473537B2, “Three-dimensional cell culture, devices, and use thereof” (THE BROAD INSTITUTE, INC., priority 2020, dated 2025).

Legend:
Format in all cases: cell-based, human
[1] = test system: Notch signaling; test: Notch inhibition in 2D culture, Hes1 gene expression; conditions: 10 μM
Excerpt: (§1) Next, Applicant further examined whether other junction signaling pathways critical for β-cell differentiation, such as the Notch signaling pathway, could be supported in the DP, as Notch inhibition in pancreatic progenitor cells is known to promote differentiation into the endocrine lineage and β-cell production. To measure this in the DP, Applicant supplemented the differentiation protocol of pancreatic progenitor cells with Notch inhibitor (NI) [γ-secretase inhibitor, N—[N-(3,5-Difluorophenacetyl)-L-alanyl]-S-phenylglycine t-butyl ester (DAPT) (10 μM)] and examined the cells at the end of pancreatic progenitor cells (stage 4 day 5 (S4d5)) by immunocytochemistry and gene expression analysis (FIGS. 8A-8D). […]
(§2) Compound treatment. […] For the dose-cytotoxicity study, cell viability was measured by AlamarBlue™ assay following the manufacturer's protocol (Invitrogen, Carlsbad, CA, USA).
(§3) Gene Expression Analysis. […] The RNA concentration was determined by measuring absorbance at 260 nm using a spectrophotometer. […] The profiles of gene expression in SC β-cells were quantified for each target (human E-cad, CX-36, ZnT8, Pdx-1, Nkx6.1, Insulin, and glyceraldehyde 3-phosphate dehydrogenase (GAPDH), QuantiTect primary assay). The expression level of target genes was determined by the comparative Ct method, whereby the target is normalized to the endogenous reference (GAPDH) 40. […]

[2] = test system: pancreatic progenitor cells; test: Notch inhibition in DP, immunocytochemical staining for Pdx-1 and Nkx6.1; conditions: 10 μM, S4d5
Excerpt: Next, Applicant further examined whether other junction signaling pathways critical for β-cell differentiation, such as the Notch signaling pathway, could be supported in the DP, as Notch inhibition in pancreatic progenitor cells is known to promote differentiation into the endocrine lineage and β-cell production. To measure this in the DP, Applicant supplemented the differentiation protocol of pancreatic progenitor cells with Notch inhibitor (NI) [γ-secretase inhibitor, N—[N-(3,5-Difluorophenacetyl)-L-alanyl]-S-phenylglycine t-butyl ester (DAPT) (10 μM)] and examined the cells at the end of pancreatic progenitor cells (stage 4 day 5 (S4d5)) by immunocytochemistry and gene expression analysis (FIGS. 8A-8D). […] Upon establishing the differentiation capabilities of the DP, Applicant then reasoned whether differentiated SC β cells also elicited proper insulin secretion functionality. The DP also supported insulin secretion from SC β cells in response to glucose stimulation, and similar secretion indices were noted between DP and SF (FIG. 3J).
Compound treatment. Cells were seeded into the DP and incubated with their respective media as outlined in the section above and allowed to settle for 24 hours (day 1). […] For the dose-cytotoxicity study, cell viability was measured by AlamarBlue™ assay following the manufacturer's protocol (Invitrogen, Carlsbad, CA, USA). […]

[3] = test system: Notch signaling; test: Notch inhibition in pancreatic progenitor cells in Disque platform (DP), qRT-PCR gene expression; conditions: 10 μM, 4 days, cells cultured in DP
Excerpt: as §1, §2, §3

[4] = test system: DYRKIA; test: NFAT1 nuclear translocation as readout for DYRKIA inhibition
Method: Immunocytochemical staining. The Immunofluorescent staining was performed as previously described in the Flow cytometry section. The additional primary antibodies for immunocytochemical staining were used: rabbit polyclonal anti-NFAT1 (1:500, ab244310, Abcam, Cambridge, MA, USA), mouse monoclonal anti-E-cadherin (1:500, Abcam) and rabbit polyclonal anti-connexin 36 (1:500, Abcam). Secondary antibodies were stained using previously described antibodies noted within the flow cytometry method. Cells were then counter-stained with 4′, 6-Diamidino-2-phenylindole (DAPI, MilliporeSigma, Burlington, MA, USA) or 2,5′-Bi-1H-benzimidazole (Hoechst, Invitrogen). HTS imaging was performed using the Opera Phenix™ High Content Screening System (PerkinElmer, Waltham, MA, USA). Fluorescent and bright-field imaging were performed using the Eclipse TE2000-U (Nikon, Tokyo, Japan). Confocal imaging and z-stack 3D reconstruction were performed using LSM 800 with Airyscan (Zeiss, Oberkochen, Germany). Analysis was performed using ImageJ (NIH) and Adobe Photoshop (Adobe, San Jose, CA, USA) software.

[5] = test system: SC β cells; test: Dose-cytotoxicity study, AlamarBlue assay; conditions: 0.032~500 μM
Method: Compound treatment. […] For compound treatment (ZnPDs and small molecule cargos), the media were replaced with new media supplemented with prodrug at different concentrations on day 3 and day 6 for a total treatment of 6 days. Cell analyses was performed after 7 days in culture. […] For the dose-cytotoxicity study, cell viability was measured by AlamarBlue™ assay following the manufacturer's protocol (Invitrogen, Carlsbad, CA, USA).
Cell viability test. To determine the viability of SC β-cells in the DP and SF, a Live/Dead Viability and Cytotoxicity Assay Kit (AlamarBlue™, Invitrogen) were used according to the manufacturer's instructions.

[6] = test system: SC β cells; test: Proliferation of SC β cells in DP (EdU or Ki67, flow cytometry)
Method: Applicant then compared ZnPD6 and harmine over the range of 0.625 to 20 μM based on the percentage of proliferating mature SC β cells using the c-peptide/EdU co-positive metric, wherein EdU is a proliferation marker that identifies cells undergoing DNA replication in the S phase (FIG. 5D). […] Despite releasing the same drug following ZnPD cleavage, Applicant were interested in determining what caused the difference in cytotoxicity and proliferation between ZnPD6 and unmodified harmine. Applicant then examined harmine and ZnPD6 at their optimal concentrations for proliferation, 10 μM and 20 μM, respectively.
Compound treatment. Cells were seeded into the DP and incubated with their respective media as outlined in the section above and allowed to settle for 24 hours (day 1). For compound treatment (ZnPDs and small molecule cargos), the media were replaced with new media supplemented with prodrug at different concentrations on day 3 and day 6 for a total treatment of 6 days. Cell analyses was performed after 7 days in culture. For targeting study with ZnPD4, cells were treated with ZnPD4 for 2 hours. […] For the dose-cytotoxicity study, cell viability was measured by AlamarBlue™ assay following the manufacturer's protocol (Invitrogen, Carlsbad, CA, USA).
Flow cytometry. […] Cells were analyzed using a BD FACSAria™ II flow cytometer (BD Biosciences, Franklin Lakes, NJ, USA). […]

| SMILES | Hes1 expression response to Notch inhibition [1] | Pdx-1-positive progenitor cells after Notch inhibition [2] | increase in Pdx-1 expression ([3]; S4d5, vs control) [%] | decrease in hairy and enhancer of split-1 (Hes1) expression ([3]; vs control) [%] | NFAT1 nuclear translocation over time, in words ([4]; FIG. 5H) | NFAT1 nuclear translocation ([4]; at 24 hours) [%] | NFAT1 nuclear translocation ([4]; value before the decrease) [%] | concentration above which a cytotoxic effect is seen [5] | population of proliferating monohormonal SC β cells (C-peptide+GCG-EdU+) ([6]; DP, flow cytometry, compared to DMSO control or negative control) | optimal concentration for proliferation ([6]; SC β cells in DP) [µM] |
| --- | --- | --- | --- | --- | --- | --- | --- | --- | --- | --- |
| C[C@H](NC(=O)Cc1cc(F)cc(F)c1)C(=O)N[C@H](C(=O)OC(C)(C)C)c1ccccc1 [DAPT, N—[N-(3,5-Difluorophenacetyl)-L-alanyl]-S-phenylglycine t-butyl ester] | not responsive | significantly increased | 80 | 71 | – | – | – | – | – | – |
| COc1ccc2c(c1)[nH]c1c(C)nccc12 [harmine] | – | – | – | – | decreased NFAT1 nuclear translocation after 4 hours | 15 | 26 | over 10 μM | statistically significant increase | 10 |
